Experiments:
Type in all cases: in vivo, human
menopausal women [1] = assay: Clinical study: evaluation by dermatologists of skin signs associated with the side effects of retinoic acid (score 0-9, on the face); conditions: scale 0-9, face
Experimental: (§1) The beneficial effect, in terms of reinforcing skin tolerance, of the food supplement of example 1 was assessed in a clinical study carried out according to the protocol which follows:
(§2) The study performed under dermatological control (30 dermatologists) was carried out in menopausal women (n=203), from 50 to 66 years old and showing moderate signs of photo-aging on the face.
(§3) These women were divided up into two treatment groups: • group 1 treated with 0.05% by weight retinoic acid, relative to the total weight of the composition, for 6 months at a rate of one application per day (control group), • group 2 treated with 0.05% by weight retinoic acid, relative to the total weight of the composition, for 6 months at a rate of one application per day, combined with daily intake of the food supplement as described in example 1. 3.1 Evaluation of Symptoms
(§4) The symptoms associated with skin tolerance were evaluated after 60, 120 and 180 days by, on the one hand, dermatologists and, on the other hand, by the subjects themselves.
Dermatologist Scoring Scale

menopausal women [2] = assay: Clinical study: evaluation by the patients of skin signs associated with the side effects of retinoic acid (none/mild/moderate/severe, on the face)
Experimental: as §1, §2, §3, §4
During the last 2 months, have you experienced on the face

menopausal women [3] = assay: Clinical study: overall evaluation of skin tolerance to the treatments by the dermatologists (questionnaire)
Experimental: as §1, §2, §3
(§5) Skin tolerance to the treatments was checked after 60, 120 and 180 days by means of questionnaires given to the dermatologists and the subjects participating in the study.
(§6) Tables 1 (evaluations by the dermatologists) and 2 (self-evaluation by the subjects) summarize the skin tolerance results obtained in groups 1 and 2. The results are expressed as of subjects, in reply to the following question: “do you consider thus far that the tolerance to the treatment is”. The possible replies were excellent, good, average and poor.

menopausal women [4] = assay: Clinical study: overall evaluation of skin tolerance to the treatments by the subjects (questionnaire)
Experimental: as §1, §2, §3, §5, §6

## CC1=C(/C=C/C(C)=C/C=C/C(C)=C/C(=O)O)C(C)(C)CCC1 [GROUP 1, retinoic acid]
Menopausal women [1]; D0
  Pruritus, mean score (dermatologists): 0.6
  Sign of desquamation, mean score (dermatologists): 1.6
  Sign of redness, mean score (dermatologists): 1.2
  Sign of skin dryness, mean score (dermatologists): 3.2
Menopausal women [1]; D60
  Pruritus, mean score (dermatologists): 1.2
  Sign of desquamation, mean score (dermatologists): 1.8
  Sign of redness, mean score (dermatologists): 1.6
  Sign of skin dryness, mean score (dermatologists): 2.7
Menopausal women [1]; D120
  Pruritus, mean score (dermatologists): 0.9
  Sign of desquamation, mean score (dermatologists): 1.5
  Sign of redness, mean score (dermatologists): 1.3
  Sign of skin dryness, mean score (dermatologists): 2.2
Menopausal women [1]; D180
  Pruritus, mean score (dermatologists): 0.6
  Sign of desquamation, mean score (dermatologists): 1.1
  Sign of redness, mean score (dermatologists): 1.0
  Sign of skin dryness, mean score (dermatologists): 1.7
Menopausal women [2]; D60
  Desquamation, patients replying mild (Mi): 41%
  Desquamation, patients replying moderate (Mo): 21%
  Desquamation, patients replying severe (S): 1%
  Redness, patients replying mild (Mi): 46%
  Redness, patients replying moderate (Mo): 13%
  Redness, patients replying severe (S): 0%
  Signs of discomfort, patients replying mild (Mi): 42%
  Signs of discomfort, patients replying moderate (Mo): 15%
  Signs of discomfort, patients replying severe (S): 0%
  Tautness, patients replying mild (Mi): 49%
  Tautness, patients replying moderate (Mo): 10%
  Tautness, patients replying severe (S): 1%
Menopausal women [2]; D120
  Desquamation, patients replying mild (Mi): 42%
  Desquamation, patients replying moderate (Mo): 14%
  Desquamation, patients replying severe (S): 0%
  Itching, patients replying mild (Mi): 42%
  Itching, patients replying moderate (Mo): 7%
  Itching, patients replying severe (S): 0%
  Redness, patients replying mild (Mi): 49%
  Redness, patients replying moderate (Mo): 7%
  Redness, patients replying severe (S): 1%
  Signs of discomfort, patients replying mild (Mi): 35%
  Signs of discomfort, patients replying moderate (Mo): 13%
  Signs of discomfort, patients replying severe (S): 0%
  Tautness, patients replying mild (Mi): 43%
  Tautness, patients replying moderate (Mo): 8%
  Tautness, patients replying severe (S): 0%
Menopausal women [2]; D180
  Desquamation, patients replying mild (Mi): 35%
  Desquamation, patients replying moderate (Mo): 8%
  Desquamation, patients replying severe (S): 0%
  Itching, patients replying mild (Mi): 35%
  Itching, patients replying moderate (Mo): 4%
  Itching, patients replying severe (S): 0%
  Redness, patients replying mild (Mi): 35%
  Redness, patients replying moderate (Mo): 6%
  Redness, patients replying severe (S): 0%
  Signs of discomfort, patients replying mild (Mi): 31%
  Signs of discomfort, patients replying moderate (Mo): 7%
  Signs of discomfort, patients replying severe (S): 0%
  Tautness, patients replying mild (Mi): 35%
  Tautness, patients replying moderate (Mo): 7%
  Tautness, patients replying severe (S): 1%
Menopausal women [2]; J60 (D60)
  Itching, patients replying mild (Mi): 48%
  Itching, patients replying moderate (Mo): 15%
  Itching, patients replying severe (S): 0%
Menopausal women [3]; D60
  Tolerance to the treatment judged Average by the dermatologists, subjects: 24%
  Tolerance to the treatment judged Excellent by the dermatologists, subjects: 15%
  Tolerance to the treatment judged Good by the dermatologists, subjects: 62%
  Tolerance to the treatment judged Poor by the dermatologists, subjects: 0%
Menopausal women [3]; D120
  Tolerance to the treatment judged Average by the dermatologists, subjects: 23%
  Tolerance to the treatment judged Excellent by the dermatologists, subjects: 20%
  Tolerance to the treatment judged Good by the dermatologists, subjects: 58%
  Tolerance to the treatment judged Poor by the dermatologists, subjects: 0%
Menopausal women [3]; D180
  Tolerance to the treatment judged Average by the dermatologists, subjects: 15%
  Tolerance to the treatment judged Excellent by the dermatologists, subjects: 23%
  Tolerance to the treatment judged Good by the dermatologists, subjects: 63%
  Tolerance to the treatment judged Poor by the dermatologists, subjects: 0%
Menopausal women [4]; D60
  Tolerance to the treatment judged Average by the subjects, subjects: 20%
  Tolerance to the treatment judged Excellent by the subjects, subjects: 18%
  Tolerance to the treatment judged Good by the subjects, subjects: 63%
  Tolerance to the treatment judged Poor by the subjects, subjects: 0%
Menopausal women [4]; D120
  Tolerance to the treatment judged Average by the subjects, subjects: 21%
  Tolerance to the treatment judged Excellent by the subjects, subjects: 25%
  Tolerance to the treatment judged Good by the subjects, subjects: 54%
  Tolerance to the treatment judged Poor by the subjects, subjects: 1%
Menopausal women [4]; D180
  Tolerance to the treatment judged Average by the subjects, subjects: 15%
  Tolerance to the treatment judged Excellent by the subjects, subjects: 30%
  Tolerance to the treatment judged Good by the subjects, subjects: 53%
  Tolerance to the treatment judged Poor by the subjects, subjects: 2%
